From PMC8036666, “Biological and Physico-Chemical Characteristics of Arginine-Rich Peptide Gemini Surfactants with Lysine and Cystine Spacers” (International Journal of Molecular Sciences, 2021)
Converted amounts (≈) assume the structure as drawn. “And” between values parts separate entries of the source, which are not always exact repeats. Equal entries are not always repeated. Values belong to the compound of their own block, whether it stands above or below them. Where a SMILES comes first, the peptide text is derived from it. Bridges are numbered along the chain shown (N, C = ends). Roman numbers before positions name the chains, in order. Side-chain parts run from the residue outwards. The star is where a group is joined. Decanoyl = CCCCCCCCCC(=O)*; Octanoyl = CCCCCCCC(=O)*

Experiments:
[1] = Lipopeptide hydrophobicity by RP-HPLC (adjusted retention time); format: physicochemical; conditions: for Adjusted Retention Time: RP-HPLC, 20–65% acetonitrile over 30 min, indicator of hydrophobicity
Description: (§1) The identity of the purified peptides was confirmed with electrospray ionization mass spectrometry (ESI-MS) in positive ion mode. Results of MS analyses and net charge are attached in Supplementary Materials (Table S1). Peptides’ hydrophobicity was evaluated by analytical reversed-phase high-performance liquid chromatography (RP-HPLC). The critical aggregation concentrations (CACs) of the lipopeptides were determined in unbuffered aqueous solution at 298 K by measuring the surface tension as a function of lipopeptide concentration. The measurements were carried out by the Du Noüy ring method on a K100 tensiometer. The surface tension data were plotted against the logarithm of lipopeptide concentration. CAC was found as the intersection of two lines being linear regression of data below and above CAC.
Lipopeptide hydrophobicity was determined as described previously. To do this, a Waters Alliance e2695 system with a Waters 2998 PDA Detector (software-Empower 3, Waters, Milford, MA, USA) was used. All analyses were carried out on a Waters X-Bridge Shield RP-18 column (3.0 × 100 mm, 3.5 μm particle size, 130 Å pore size). The Shield Technology column with embedded polar groups was used to minimize interactions of unreacted silanol groups with basic lipopeptides. The peptides were dissolved in water (0.1% TFA, v/v) up to a concentration of 1 mg/mL. UV detection at 214 nm was used, and samples (10 μL) were eluted with a linear 20–65% acetonitrile gradient in deionized water over 30 min at 25.0 ± 0.1 °C. The mobile phase flow rate was 0.5 mL/min. Both eluents contained 0.1% (v/v) of TFA. Each peptide sample was analyzed in triplicate. The maximum standard deviation and coefficient of variation were 0.044 and 0.85%, respectively.

[2] = test system: HaCaT cells; format: cell-based, human; conditions: 24 h
Description: Cells were trypsinized, and the medium was renewed 2–3 times per week. The cytotoxicity of compounds was assessed by the determination of cell metabolic activity by colorimetric CellTilter 96® Aqueous One Solution Cell Proliferation Assay (Promega, Madison, WI, USA), according to the manufacturer’s instructions. […] Every compound was medium-soluble in 37 °C; thus, the control cells were cultured with the medium. Serial dilutions of the tested compounds were always prepared prior to use. Cells were incubated with drugs for 24 h, and then, 20 μL of the CellTiter 96®AqueousOne Solution Reagent was added to each well containing cells maintained in 100 μL of culture medium.

[3] = test system: Acinetobacter baumannii ATCC BAA 1605; format: cell-based; conditions: ATCC BAA 1605, 24 h
Description: (§2) Biofilm is associated with life-threating infections due to its outstanding resistance to antibiotics. In this study, the antibiofilm characteristics of USCLs and gemini surfactants were evaluated.
(§3) The MBECs were determined as described previously using 96-well polystyrene flat-bottom plates. For this purpose, 24 h cultures of microorganisms were diluted to obtain a final density of 5.0 × 10^5 CFU/mL and 2.0 × 10^5 CFU/mL of bacteria and fungi, respectively. Microorganisms were diluted in MHB or RPMI-1640 with 2% D-glucose (bacteria and fungi, respectively). Briefly, 100 µL of cell suspension was added into the test plates. After 24 h of incubation at 37 °C, the wells were rinsed three times with a PBS (pH 7.4) to remove non-adherent cells. Subsequently, 100 μL of the test compounds in a concentration range (1–512 μg/mL) were added to each well. After 24 h of incubation at 37 °C, 20 μL of a cell viability reagent was added (resazurin, 4 g/L; Sigma Aldrich, St. Louis, MO, USA). The MBEC was read after 1 h. The determined values were recorded as the lowest concentration at which the reduction of resazurin (from blue to pink) was lower or equal to 10 ± 0.5% as compared to the positive (100%) and negative (0%) controls. The reduction was monitored by measuring absorbance at 570 nm (reduced) and 600 nm (oxidized) using a microplate spectrophotometer (Multiskan GO Microplate Spectrophotometer, Thermo Fisher Scientific, Vantaa, Finland). All experiments were conducted in triplicate.

[4] = test system: Candida albicans ATCC 10231; format: cell-based; conditions: ATCC 10231, 24 h
Description: as §2, §3

[5] = test system: Candida glabrata ATCC 15126; format: cell-based; conditions: ATCC 15126, 24 h
Description: as §2, §3

[6] = test system: Enterococcus faecium ATCC 700221; format: cell-based; conditions: ATCC 700221, 24 h
Description: as §2, §3

[7] = test system: Klebsiella aerogenes ATCC 13048; format: cell-based; conditions: ATCC 13048, 24 h
Description: as §2, §3

[8] = test system: Klebsiella pneumoniae ATCC 700603; format: cell-based; conditions: ATCC 700603, 24 h
Description: as §2, §3

[9] = test system: Pseudomonas aeruginosa ATCC 9027; format: cell-based; conditions: ATCC 9027, 24 h
Description: as §2, §3

[10] = test system: Staphylococcus aureus ATCC 25923; format: cell-based; conditions: ATCC 25923, 24 h
Description: as §2, §3

[11] = test system: Staphylococcus aureus ATCC 33591; format: cell-based; conditions: ATCC 33591, 24 h
Description: as §2, §3

[12] = Critical aggregation concentration by surface tension (Du Noüy ring, K100 tensiometer); format: physicochemical; conditions: unbuffered aqueous solution, 298 K
Description: as §1
The critical aggregation concentration (CAC) values were determined fully automatically using a K100 tensiometer (KRUSS, Hamburg, Germany) equipped with two micro dosimeters by measuring the surface tension vs. lipopeptide concentration. The measurements were performed in unbuffered aqueous solution at 298 K using the Du Noüy ring method. The accuracy of the surface tension measurements was 0.1 mN/m. The critical aggregation concentration (CAC) was defined as the intersection of two lines fitted to the experimental data collected before and after the inflection point.

Adjusted Retention Time [1]: 8.11 min
SMILES: CCCCCCCC(=O)N[C@@H](CCCNC(=N)N)C(=O)N[C@@H](CCCNC(=N)N)C(=O)NCCCC[C@H](NC(=O)[C@H](CCCNC(=N)N)NC(=O)[C@H](CCCNC(=N)N)NC(=O)CCCCCCC)C(N)=O [Compound B1] (Octanoyl-Arg-Arg-Lys([Arg-Arg-Octanoyl])-NH2)
IC50 [2]: 378.40 ± 93.71 mg/L (≈ 370 µM) | MBEC Acinetobacter baumannii ATCC BAA 1605 [3]: 512 µg/mL | MBEC Candida albicans ATCC 10231 [4]: 256 µg/mL | MBEC Candida glabrata ATCC 15126 [5]: >512 µg/mL | MBEC Enterococcus faecium ATCC 700221 [6]: 128 µg/mL | MBEC Klebsiella aerogenes ATCC 13048 [7]: >512 µg/mL | MBEC Klebsiella pneumoniae ATCC 700603 [8]: >512 µg/mL | MBEC Pseudomonas aeruginosa ATCC 9027 [9]: 512 µg/mL | MBEC Staphylococcus aureus ATCC 25923 [10]: 32 µg/mL | MBEC Staphylococcus aureus ATCC 33591 [11]: 32 µg/mL

SMILES: CCCCCCCCCC(=O)N[C@@H](CCCNC(=N)N)C(=O)N[C@@H](CCCNC(=N)N)C(=O)NCCCC[C@H](NC(=O)[C@H](CCCNC(=N)N)NC(=O)[C@H](CCCNC(=N)N)NC(=O)CCCCCCCCC)C(N)=O [Compound B2] (Decanoyl-Arg-Arg-Lys([Arg-Arg-Decanoyl])-NH2)
Adjusted Retention Time [1]: 13.73 min | CAC [12]: 3.69 mM and 3980.0 μg/mL | Surface Tension at CAC [12]: 36 mN/m | IC50 [2]: 150.03 ± 3.15 mg/L (≈ 139 µM) | MBEC Acinetobacter baumannii ATCC BAA 1605 [3]: 128 µg/mL | MBEC Candida albicans ATCC 10231 [4]: 32 µg/mL | MBEC Candida glabrata ATCC 15126 [5]: 512 µg/mL | MBEC Enterococcus faecium ATCC 700221 [6]: 4 µg/mL | MBEC Klebsiella aerogenes ATCC 13048 [7]: 256 µg/mL | MBEC Klebsiella pneumoniae ATCC 700603 [8]: 256 µg/mL | MBEC Pseudomonas aeruginosa ATCC 9027 [9]: 512 µg/mL | MBEC Staphylococcus aureus ATCC 25923 [10]: 8 µg/mL | MBEC Staphylococcus aureus ATCC 33591 [11]: 4 µg/mL

SMILES: CCCCCCC(CCCC)C(=O)N[C@@H](CCCNC(=N)N)C(=O)N[C@@H](CCCNC(=N)N)C(=O)NCCCC[C@H](NC(=O)[C@H](CCCNC(=N)N)NC(=O)[C@H](CCCNC(=N)N)NC(=O)C(CCCC)CCCCCC)C(N)=O (some centres unmarked) [Compound B7]
Adjusted Retention Time [1]: 14.68 min | IC50 [2]: 78.78 ± 6.93 mg/L (≈ 69.4 µM) | MBEC Acinetobacter baumannii ATCC BAA 1605 [3]: 64 µg/mL | MBEC Candida albicans ATCC 10231 [4]: 64 µg/mL | MBEC Candida glabrata ATCC 15126 [5]: 256 µg/mL | MBEC Enterococcus faecium ATCC 700221 [6]: 8 µg/mL | MBEC Klebsiella aerogenes ATCC 13048 [7]: 64 µg/mL | MBEC Klebsiella pneumoniae ATCC 700603 [8]: 128 µg/mL | MBEC Pseudomonas aeruginosa ATCC 9027 [9]: 256 µg/mL | MBEC Staphylococcus aureus ATCC 25923 [10]: 8 µg/mL | MBEC Staphylococcus aureus ATCC 33591 [11]: 4 µg/mL

Adjusted Retention Time [1]: 8.26 min | Difference in retention time calculated as tR’C—tR’B ([1]; between corresponding surfactants of series C and B): 0.15 min
SMILES: CCCCCCCC(=O)N[C@@H](CCCNC(=N)N)C(=O)N[C@@H](CCCNC(=N)N)C(=O)N[C@@H](CSSC[C@H](NC(=O)[C@H](CCCNC(=N)N)NC(=O)[C@H](CCCNC(=N)N)NC(=O)CCCCCCC)C(N)=O)C(N)=O [Compound C1] (I: Octanoyl-Arg-Arg-Cys-NH2 / II: Octanoyl-Arg-Arg-Cys-NH2; disulfide I:3-II:3)
IC50 [2]: >500 mg/L | MBEC Acinetobacter baumannii ATCC BAA 1605 [3]: 512 µg/mL | MBEC Candida albicans ATCC 10231 [4]: 256 µg/mL | MBEC Candida glabrata ATCC 15126 [5]: >512 µg/mL | MBEC Enterococcus faecium ATCC 700221 [6]: 64 µg/mL | MBEC Klebsiella aerogenes ATCC 13048 [7]: >512 µg/mL | MBEC Klebsiella pneumoniae ATCC 700603 [8]: >512 µg/mL | MBEC Pseudomonas aeruginosa ATCC 9027 [9]: 512 µg/mL | MBEC Staphylococcus aureus ATCC 25923 [10]: 64 µg/mL | MBEC Staphylococcus aureus ATCC 33591 [11]: 32 µg/mL
